Experimental data as given in patent US11613552B2, “Pharmaceutical agents, compositions, and methods relating thereto” (Alltech, Inc., priority 2017, dated 2023).

Experiments:
Lepr^db/db mice [1] = assay: Acute treatment: blood glucose in Lepr^db/db mice; assay type: in vivo, mouse
Method: After overnight fasting, 8-10-week-old Lepr^db/db mice were intraperitoneally injected with physiological saline ([…]) containing 0.2% DMSO, or Compound #43 (0.0054, 0.054, 0.54, or 5.4 mg Compound #43 (the compound stock was diluted in sterile physiological saline) per kilogram of body weight. Following the injection of saline or compound, mice were returned to their cages with free access to water but not chow for 1, 2, 3, 5 and 8 hr. At each time point after injection, a small drop of blood was collected from the tail of each mouse for glucose assay.
Additional 6-week old Lepr^db/db mice under non-fasting conditions were intraperitoneally injected with physiological saline ([…]) containing 0.2% DMSO, or a single dose of Compound #43 (5.4 mg compound/kg body weight). After injection, animals were returned back to their cages with free access to water and chow. After 24 hr, a small drop of blood from the mouse tail was collected for glucose assay.
(§1) After treatment with physiological saline or compounds or after the injection of a bolus of glucose, a small drop of blood from each mouse was collected by snipping the mouse tail tip. Blood glucose levels were determined using a Glucometer with a maximum capability for glucose measurement of 600 mg/dL.

Lepr^db/db mice [2] = assay: Chronic treatment: fasting blood glucose and HbA1c in Lepr^db/db mice; assay type: in vivo, mouse
Method: Male Lepr^db/db mice at 38 days of age were intraperitoneally (ip) injected daily with physiological saline ([…]) containing 0.2% DMSO, Compound #C, Compound #50, Compound #68, and/or Compound #43 (25 μg selenium or sulfur equivalents of each compound per kilogram body weight, diluted in sterile physiological saline) for periods ranging from 43-90 days. Body weights of the above treated mice were recorded daily using a balance and any visible abnormal animal gross morphology and walking behavior were monitored daily. After the treatments, animals were fasted overnight and then subjected to blood glucose or HbA1c assays, glucose tolerance tests or tissue collections.
For comparative studies of any potential anti-diabetic effects of Compounds #43, #69 and #70, male Lepr^db/db mice at 41 days of age were intraperitoneally (ip) injected daily with physiological saline ([…]) containing 0.2% DMSO, Compound #43, Compound #69, or Compound #70 (25 μg selenium of each compound per kilogram body weight, diluted in sterile physiological saline). After the treatments for 43 days, animals were fasted overnight and then subjected to blood glucose and glucose tolerance tests. After daily treatments of these compounds for 90 days, sera from these animals were collected and then subjected to blood HbA1c assays.
as §1
After saline or compound treatments, a small drop of blood from the mouse tail was collected in an EDTA-coated eppendorf tube (to prevent blood coagulation) (Fisher Scientific), and then subjected to a HbA1c assay using the Crystal Chem's or Kamiya's mouse glycated hemoglobin A1c ELISA kit, according to the manufacturer's protocol. Also after the final treatments, mouse serum was collected and subjected to HbA1c assay using the Kamiya Biomeidcal Company's mouse HbA1c kit, according to the manufacturer's protocol.

INSRβ/AS160 = assay: Western blot of INSRβ and AS160 phosphorylation in HepG2 cells; assay type: cell-based, human; conditions: 600 ppb, 30 and 60 minutes (FIG. 23)
Method: HepG2 cells were seeded on 6-well plates (7×10^5 cells/well) and cultured in 10% FBS EMEM media for 30 hr. Then these cells were washed twice with PBS to remove residual sera, and serum-starved in plain EMEM media overnight. These serum-starved HepG2 cells were treated without or with Compound #43 (600 ppb) in serum-free media for 0 minute (right before the treatment), 30 and 60 minutes.
After the above treatments, cultured HepG2 cells or differentiated C2C12 cells were rinsed twice with ice-cold PBS and lysed in ice-cold RIPA buffer containing complete proteinase and phosphatase inhibitors (Thermo-Fisher Scientific, Waltham, Mass.) on ice for 30 min. […] Protein levels in the supernatant of these cell lysates were determined using the Pierce Micro-BCA protein assay kit (Thermo Scientific-Piece Biotechnology, Rockford, Ill.) according to the manufacturer's protocol.
One hundred micrograms of skeletal muscle or liver tissue proteins, five micrograms of HepG2 cell protein extracts, or eight micrograms of differentiated C2C12 cell protein extracts were subjected to SDS-PAGE gel separation and then transferred to PVDF membranes, as described previously (Reddy et al. 2008 Science). […] Positive signals on the membrane blots were detected using the Amersham's enhanced chemiluminescence Western Blotting Prime Detection reagents (GE Healthcare Lifescience, Pittsburgh, Pa.). […]

STZ-induced T1D mice = assay: Blood glucose in STZ-induced type 1 diabetic mice after acute treatment; assay type: in vivo, mouse; conditions: 5.4 mg/kg ip, fasted
Method: Five-week-old C57/BL6 male mice were intraperitoneally injected with streptozotocin (STZ, 55 mg/kg mouse body weigh) daily for 5 days, and then housed in the vivarium for another 14 days for recovery. Blood glucose levels of these mice were measured using a glucometer. Those animals with a blood glucose level higher than 500 mg/dL were considered to be type I diabetic (T1D). These T1D mice with unfasted blood glucose levels between 500-550 mg/dL were fasted overnight and injected intraperitoneally with Compound #43 at a dose of 5.4 mg/kg body weight or physiological saline containing 2% DMSO (Compound #43 stock solvent). At 1, 2 and 3 hours post-injection, blood glucose levels in these mice were measured using the glucometer.

[3] = 25 μg selenium/kg ip daily for 43 days from 41 days of age (FIG. 5)
[4] = 25 μg selenium/kg ip daily, 3 months (FIG. 4)

C[Se]C[C@H]1O[C@@H](n2cnc3c(N)ncnc32)C(OC(C)=O)C1OC(C)=O (stereo partly drawn) [Compound #43, Adenosine, 5′-Se-methyl-5′-selino-, 2′,3′-diacetate]
decrease of blood glucose levels (Lepr^db/db mice [1]; 5.4 mg/kg single ip, 24 hr, 6-week-old mice, ad-libitum feeding (FIG. 7)): about 20% | duration of effectiveness in lowering glucose output (Lepr^db/db mice [1]; 5.4 mg/kg single ip, feeding conditions): at least 24 hr | effect on blood glucose levels vs saline (Lepr^db/db mice [1]; single ip 0.0054, 0.054, 0.54, 5.4 mg/kg, fasting, 1-8 hr (FIG. 6)): significant decrease of blood glucose levels | duration of activity (Lepr^db/db mice [1]; single ip injection, fasting): at least 8 hours | onset of action post-treatment (Lepr^db/db mice [1]; single ip injection, fasting): ≤ 1 h | time of peak activity in reducing blood glucose levels (Lepr^db/db mice [1]; single ip injection, fasting conditions): 2 to 5 h | effect on fasting blood glucose levels (Lepr^db/db mice [2]; 25 μg selenium or sulfur/kg ip daily, 3 months (FIG. 4)): statistically significant decrease in fasting blood glucose levels | decrease in fasting blood glucose levels vs saline (Lepr^db/db mice [2]; [3]): ~35% | fasting blood glucose levels (Lepr^db/db mice [2]; [3]): 188 mg/dL | effect on HbA1c levels (Lepr^db/db mice [2]; 25 μg selenium/kg ip daily for 90 days from 41 days of age (FIG. 5)): significant decrease of HbA1c levels | reduction in serum HbA1c levels compared to saline (Lepr^db/db mice [2]; 25 μg selenium/kg ip daily from day 38, measured at 90 days of age (FIG. 3)): ~20% | reduction of fasting blood glucose levels compared to controls (Lepr^db/db mice [2]; 25 μg selenium/kg ip daily from day 38, measured at day 81 (FIG. 3)): about 45% | decrease of blood HbA1c levels compared to saline (Lepr^db/db mice [2]; [4]): about 30% | fasting glucose levels (Lepr^db/db mice [2]; [4]): about 135 mg/dL | phosphorylated AS160 (INSRβ/AS160): significant increase of phosphorylated AS160 at 5588 | phosphorylated INSRβ at Y1146 (INSRβ/AS160): significant increase of phosphorylated INSRβ at Y1146 | blood glucose levels (STZ-induced T1D mice; 2 and 3 hours (FIG. 28)): significant decrease in blood glucose levels | blood glucose levels (STZ-induced T1D mice; 1 hour (FIG. 28)): trend of decreased blood glucose levels
